Data reported in the NIST ThermoML archive (doi:10.1016/j.jct.2019.02.015).

What was measured:
[1] = wn = mass fraction of the nth substance listed; details: 298.15 K, 100 kPa, Liquid; for viscosity: Falling or rolling sphere viscometry; for speed of sound: Frequency=3 MHz, Single path-length method; for mass density: Vibrating tube method
[2] = refractive index (Na D-line) (dimensionless); wn = mass fraction of the nth substance listed; details: 298.15 K, 100 kPa, Liquid, Standard Abbe refractometry
[3] = 101.33 kPa, Liquid; for speed of sound: Single path-length method; for mass density: Vibrating tube method
[4] = refractive index (Na D-line) (dimensionless); details: 101.33 kPa, Liquid, Standard Abbe refractometry

CCCCCC(=O)[O-].CCCCCCCC[NH+](CCCCCCCC)CCCCCCCC [trioctylammonium hexanoate] + O
Details	mass density, [1] [kg/m3]	refractive index, [2]	speed of sound, [1] [m/s]	viscosity, [1] [mPa·s]
w2 = 0.00078	844.54	1.4469	1366.2	16.72
w2 = 0.001285	844.88	–	1366.9	15.89
w2 = 0.001301	–	1.4465	–	–
w2 = 0.002315	845.44	–	1367.8	14.49
w2 = 0.002627	–	1.4458	–	–
w2 = 0.003049	–	1.4455	–	–
w2 = 0.003128	845.81	–	1368.8	13.68

CCCC(=O)[O-].CCCCCC[NH+](CCCCCC)CCCCCC [trihexylammonium butanoate]
viscosity [mPa·s], [3]
Details	Cone and plate viscometry	Falling or rolling sphere viscometry
293.15 K	–	13.26
298.15 K	11.52	10.91
303.15 K	–	9.09
308.15 K	–	7.66
313.15 K	–	6.52
318.15 K	–	5.6
323.15 K	–	4.85
328.15 K	–	4.24
333.15 K	–	3.73
338.15 K	–	3.3
343.15 K	–	2.94

Details	mass density, [3] [kg/m3]	refractive index, [4]	speed of sound, [3] [m/s]
293.15 K	848.02	1.4419	1345
298.15 K	844.32	1.44	1326.7
303.15 K	840.63	1.438	1308.6
308.15 K	836.93	1.4361	1290.7
313.15 K	833.22	1.4342	1273
318.15 K	829.5	1.4322	1255.5
323.15 K	825.78	1.4302	1238.1
328.15 K	822.04	1.4282	1221
333.15 K	818.3	1.4262	1204
338.15 K	814.54	1.4241	1187.3
343.15 K	810.76	1.4221	1171.3

CCCCCC(=O)[O-].CCCCCCCC[NH+](CCCCCCCC)CCCCCCCC [trioctylammonium hexanoate]
viscosity [mPa·s], [3]
Details	Cone and plate viscometry	Falling or rolling sphere viscometry
293.15 K	–	20.58
298.15 K	20.59	16.72
303.15 K	–	13.76
308.15 K	–	11.47
313.15 K	–	9.64
318.15 K	–	8.19
323.15 K	–	7.04
328.15 K	–	6.09
333.15 K	–	5.32
338.15 K	–	4.67
343.15 K	–	4.14

Details	mass density, [3] [kg/m3]	refractive index, [4]	speed of sound, [3] [m/s]
293.15 K	848.02	1.4489	1384
298.15 K	844.54	1.4469	1366.2
303.15 K	841.06	1.4451	1348.5
308.15 K	837.58	1.4432	1331
313.15 K	834.1	1.4413	1313.8
318.15 K	830.61	1.4394	1296.6
323.15 K	827.12	1.4375	1279.7
328.15 K	823.62	1.4353	1262.9
333.15 K	820.12	1.4336	1246.4
338.15 K	816.62	1.4316	1230.1
343.15 K	813.12	1.4294	1214.5

CCCCCC(=O)[O-].CCCCCC[NH+](CCCCCC)CCCCCC [trihexylammonium hexanoate]
viscosity [mPa·s], [3]
Details	Cone and plate viscometry	Falling or rolling sphere viscometry
293.15 K	–	13.86
298.15 K	12.53	11.44
303.15 K	–	9.55
308.15 K	–	8.05
313.15 K	–	6.86
318.15 K	–	5.9
323.15 K	–	5.11
328.15 K	–	4.48
333.15 K	–	3.95
338.15 K	–	3.5
343.15 K	–	3.12

Details	mass density, [3] [kg/m3]	refractive index, [4]	speed of sound, [3] [m/s]
293.15 K	849.82	1.4432	1353.3
298.15 K	846.21	1.4412	1335.7
303.15 K	842.59	1.4395	1317.8
308.15 K	838.96	1.4375	1300.1
313.15 K	835.33	1.4355	1282.2
318.15 K	831.69	1.4336	1264.9
323.15 K	828.04	1.4315	1247.7
328.15 K	824.38	1.4297	1230.6
333.15 K	820.72	1.4278	1213.7
338.15 K	817.03	1.4258	1196.9
343.15 K	813.33	1.4238	1180.3

CCCCCCCC(=O)[O-].CCCCCC[NH+](CCCCCC)CCCCCC [trihexylammonium octanoate]
viscosity [mPa·s], [3]
Details	Cone and plate viscometry	Falling or rolling sphere viscometry
293.15 K	–	17.02
298.15 K	15.9	13.93
303.15 K	–	11.55
308.15 K	–	9.68
313.15 K	–	8.21
318.15 K	–	7.02
323.15 K	–	6.06
328.15 K	–	5.27
333.15 K	–	4.62
338.15 K	–	4.1
343.15 K	–	3.65

Details	mass density, [3] [kg/m3]	refractive index, [4]	speed of sound, [3] [m/s]
293.15 K	851.2	1.4459	1365.7
298.15 K	847.63	1.4441	1347.7
303.15 K	844.06	1.4419	1329.8
308.15 K	840.48	1.4399	1312.2
313.15 K	836.9	1.4381	1294.7
318.15 K	833.31	1.4359	1277.4
323.15 K	829.72	1.4341	1260.2
328.15 K	826.11	1.4322	1243.2
333.15 K	822.5	1.4299	1226.5
338.15 K	818.87	1.4278	1209.9
343.15 K	815.25	1.4258	1194

CCCC(=O)[O-].CCCCCCCC[NH+](CCCCCCCC)CCCCCCCC [trioctylammonium butanoate]
viscosity [mPa·s], [3]
Details	Cone and plate viscometry	Falling or rolling sphere viscometry
293.15 K	–	17.82
298.15 K	16.03	14.55
303.15 K	–	12.06
308.15 K	–	10.09
313.15 K	–	8.55
318.15 K	–	7.3
323.15 K	–	6.3
328.15 K	–	5.49
333.15 K	–	4.82
338.15 K	–	4.28
343.15 K	–	3.82

Details	mass density, [3] [kg/m3]	refractive index, [4]	speed of sound, [3] [m/s]
293.15 K	845.71	1.4474	1377.6
298.15 K	842.19	1.4456	1359.6
303.15 K	838.68	1.4437	1341.8
308.15 K	835.16	1.4417	1324.2
313.15 K	831.64	1.4395	1306.8
318.15 K	828.12	1.4376	1289.6
323.15 K	824.59	1.4356	1272.5
328.15 K	821.05	1.4339	1255.6
333.15 K	817.51	1.4319	1239
338.15 K	813.96	1.43	1222.5
343.15 K	810.41	1.428	1206.8

CCCCCCCC(=O)[O-].CCCCCCCC[NH+](CCCCCCCC)CCCCCCCC [trioctylammonium octanoate]
viscosity [mPa·s], [3]
Details	Cone and plate viscometry	Falling or rolling sphere viscometry
293.15 K	–	25.02
298.15 K	25.07	20.3
303.15 K	–	16.63
308.15 K	–	13.85
313.15 K	–	11.6
318.15 K	–	9.84
323.15 K	–	8.38
328.15 K	–	7.26
333.15 K	–	6.33
338.15 K	–	5.54
343.15 K	–	4.92

Details	mass density, [3] [kg/m3]	refractive index, [4]	speed of sound, [3] [m/s]
293.15 K	849.68	1.4505	1393.1
298.15 K	846.22	1.4484	1375.3
303.15 K	842.77	1.4464	1357.6
308.15 K	839.31	1.4447	1340.1
313.15 K	835.85	1.4426	1322.8
318.15 K	832.38	1.4406	1305.7
323.15 K	828.91	1.4389	1288.8
328.15 K	825.44	1.4369	1272
333.15 K	821.95	1.4348	1255.5
338.15 K	818.47	1.4329	1239.2
343.15 K	815.03	1.4309	1223.7
